Results on three compounds are retold here after patent publication US20230363424A1, “COMPOUNDS AND METHODS FOR ENHANCING SWEETNESS OF SWEETENERS” (Conagen Inc., priority 2021, published 2023).

What all share (format): in vivo, human
In test [1] the test system is taste panelists. Kind of test: Inherent sweetness, two-alternative forced choice sip and spit (2AFC) vs 1.5% sucrose control. The settings on record: control 1.5% sucrose, n=30. The method, then:
The inherent sweetness of Compounds (1), (2), and (3) as perceived by human subjects was evaluated using a two-alternative forced choice “sip and spit” method (2AFC). The 2AFC test used for compound evaluation was a double-blinded and randomized test where taste panelists (n=30) evaluated a pair of sweetener solutions at a time—one sample is a 1.5% sucrose control, while the other is an aqueous solution containing a test compound at the indicated concentration. Panelists were instructed not to eat or drink (except water) for at least 1 hour before the test. During the test panelists were instructed to sip each sample, swirl it around their mouth and then expectorate. […] Panelists cleansed their palates by rinsing with water, eating a cracker and waiting for an interval of about 5 minutes. All samples were tested at ambient temperatures.

The test system of test [2] is taste panelists. Kind of test: Sweetness enhancing effect with sucrose, 2AFC sip and spit test. The following applies: control 5% sucrose solution, n=30. The method, then:
(§1) The sweetness enhancing effect of Compounds (1), (2), and (3) when used with certain sweeteners (specifically, sucrose or rebaudioside M) was evaluated using a two-alternative forced choice “sip and spit” method (2AFC). The 2AFC test used for compound evaluation was a double-blinded and randomized test where taste panelists (n=30) evaluated a pair of sweetener solutions at a time—one sample contains aqueous sweetener solution plus compound (test sample), while the other contains the aqueous sweetener solution without compound (control). Each test sample was compared against a positive control. For example, if the test sample contained 5% sucrose solution with Compound (1), the positive control contained a 5% sucrose solution (i.e., without Compound (1)). Panelists were instructed not to eat or drink (except water) for at least 1 hour before the test. During the test panelists were instructed to sip each sample, swirl it around their mouth and then expectorate. After tasting each sample in the pair, panelists were instructed to record the sample that is “sweeter” in taste. Panelists cleansed their palates by rinsing with water, eating a cracker and waiting for an interval of about 5 minutes. All samples were tested at ambient temperatures.

The subject of test [3] is taste panelists. Kind of test: Sweetness enhancing effect with rebaudioside M, 2AFC sip and spit test. The settings on record: control 100 ppm Reb M solution, n=30. Here is the method: as §1
Setting [4] is: compound 20 ppm in aqueous solution.
Setting [5] is: compound 50 ppm in aqueous solution.
Setting [6] is: compound 80 ppm in aqueous solution.
Setting [7] is: compound 20 ppm in 100 ppm Reb M solution.

Turning to `Cc1cc(O)c2c(c1)OC(=O)CC2c1ccc(O)c(O)c1` (stereo not drawn) [Compound (1), 4-(3,4-dihydroxyphenyl)-5-hydroxy-7-methylchroman-2-one], the figures for the “panelists who chose Sample as comparable in sweetness to Control” value (“panelists who chose Sample as comparable” for short) in the test with taste panelists [1] (setting [4]), in the test with taste panelists [1] (setting [5]) and in the test on taste panelists [1] (setting [6]) were 1 of 30 panelists chose Sample as, 2 of 30 panelists chose Sample as and 2 of 30 panelists chose Sample as, respectively. Also, the “panelists who chose Test Sample as sweeter than Control” value in the test with taste panelists [2] (compound 60 ppm in 5% sucrose solution) is given as 21 of 30 panelists. The “panelists who chose Sample as sweeter than Control” value in the test on taste panelists [3] (setting [7]) is 29 of 30 panelists.

For the compound `COc1cc(C2CC(=O)Oc3ccc(O)c(C)c32)ccc1O` (stereo not drawn) [Compound (2), 6-hydroxy-4-(4-hydroxy-3-methoxyphenyl)-5-methylchroman-2-one], the “panelists who chose Sample as comparable” value in the test on taste panelists [1] (setting [4]), in the test on taste panelists [1] (setting [5]) and in the test with taste panelists [1] (setting [6]) was 1 of 30 panelists chose Sample as in each case. The results for the “panelists who chose Sample as sweeter than Control” value with taste panelists [2] (compound 40 ppm in 5% sucrose solution) and in the test on taste panelists [3] (setting [7]) were 29 of 30 panelists and 30 of 30 panelists, respectively.

As for `COc1cc(C2CC(=O)Oc3cccc(O)c32)ccc1O` (stereo not drawn) [Compound (3), 5-hydroxy-4-(4-hydroxy-3-methoxyphenyl)chroman-2-one], the “panelists who chose Sample as comparable” value in the test with taste panelists [1] (setting [4]) is listed as 2 of 30 panelists chose Sample as; in the test with taste panelists [1] (setting [5]), 2 of 30 panelists chose Sample as; in the test with taste panelists [1] (setting [6]), 1 of 30 panelists chose Sample as. In addition, the “panelists who chose Sample as sweeter than Control” value was 28 of 30 panelists in the test on taste panelists [2] (compound 20 ppm in 5% sucrose solution) and 20 of 30 panelists in the test on taste panelists [3] (compound 40 ppm in 100 ppm Reb M solution).
